According to ChEMBL document CHEMBL4270669 (J Med Chem, 2018):
≈ marks a conversion by molar mass, not a printed value. Calls of active or inactive are those of the source. No cut-off for these calls is given here.

Columns and labels:
[1] = Thermodynamic solubility of the compound in FeSSIF; type: physicochemical; conditions: read-out: Therm_solubility
[2] = Clearance in mouse hepatocytes assessed per million cells; type: ADME, cell-based, Hepatocyte; conditions: read-out: CLH
[3] = AUC in Sprague-Dawley rat brain at 10 mg/kg, po administered as single dose after 8 hrs; type: ADME, organism-based; design: dose 10 mg/kg, time < 8 hr, route oral; conditions: in vivo
[4] = Thermodynamic solubility of the compound at pH 1.2; type: physicochemical; conditions: buffer, read-out: Therm_solubility
[5] = system: Mus musculus; experiment: Toxicity in BALB/C nude mouse xenografted with human OVCAR3 cells assessed as body weight loss at 50 mg/kg, po administered daily for 28 days relative to control; type: organism-based; conditions: in vivo, 672 h
[6] = Thermodynamic solubility of the compound at pH 4.5; type: physicochemical; conditions: buffer, read-out: Therm_solubility
[7] = biological target: Phosphatidylinositol 4,5-bisphosphate 3-kinase catalytic subunit beta isoform (Homo sapiens, UniProt P42338)
Description: Inhibition of human PI3Kbeta (118 to 1070 residues) expressed in mammalian expression system by KINOMEscan assay

[8] = Half life in rat hepatocytes; type: ADME, cell-based, Hepatocyte
[9] = Unbound fraction in rat brain; type: ADME, tissue-based
[10] = Ratio of drug level in C57BL/6JRj mouse brain to plasma at 50 mg/kg, po administered as single dose; type: ADME, organism-based; conditions: read-out: BPR
[11] = Metabolic stability in mouse liver microsomes assessed as compound remaining after 30 mins; type: ADME, microsome; conditions: read-out: Stability
[12] = system: Rattus norvegicus; experiment: Increase in insulin levels in Sprague-Dawley rat plasma at 10 mg/kg, po administered as single dose; type: functional, organism-based
[13] = Clearance in rat hepatocytes assessed per million cells; type: ADME, cell-based, Hepatocyte; conditions: read-out: CLH
[14] = biological target: T1, Serine/threonine-protein kinase mTOR (Homo sapiens, UniProt P42345)
[15] = system: Mus musculus; experiment: Increase in glucose levels in C57BL/6JRj mouse plasma at 50 mg/kg, po administered as single dose; type: functional, organism-based
[16] = biological target: T2, Phosphatidylinositol 4,5-bisphosphate 3-kinase catalytic subunit alpha isoform (Homo sapiens, UniProt P42336)
T2 sequence (P42336 whole entry, the tested form may be a part, canonical isoform): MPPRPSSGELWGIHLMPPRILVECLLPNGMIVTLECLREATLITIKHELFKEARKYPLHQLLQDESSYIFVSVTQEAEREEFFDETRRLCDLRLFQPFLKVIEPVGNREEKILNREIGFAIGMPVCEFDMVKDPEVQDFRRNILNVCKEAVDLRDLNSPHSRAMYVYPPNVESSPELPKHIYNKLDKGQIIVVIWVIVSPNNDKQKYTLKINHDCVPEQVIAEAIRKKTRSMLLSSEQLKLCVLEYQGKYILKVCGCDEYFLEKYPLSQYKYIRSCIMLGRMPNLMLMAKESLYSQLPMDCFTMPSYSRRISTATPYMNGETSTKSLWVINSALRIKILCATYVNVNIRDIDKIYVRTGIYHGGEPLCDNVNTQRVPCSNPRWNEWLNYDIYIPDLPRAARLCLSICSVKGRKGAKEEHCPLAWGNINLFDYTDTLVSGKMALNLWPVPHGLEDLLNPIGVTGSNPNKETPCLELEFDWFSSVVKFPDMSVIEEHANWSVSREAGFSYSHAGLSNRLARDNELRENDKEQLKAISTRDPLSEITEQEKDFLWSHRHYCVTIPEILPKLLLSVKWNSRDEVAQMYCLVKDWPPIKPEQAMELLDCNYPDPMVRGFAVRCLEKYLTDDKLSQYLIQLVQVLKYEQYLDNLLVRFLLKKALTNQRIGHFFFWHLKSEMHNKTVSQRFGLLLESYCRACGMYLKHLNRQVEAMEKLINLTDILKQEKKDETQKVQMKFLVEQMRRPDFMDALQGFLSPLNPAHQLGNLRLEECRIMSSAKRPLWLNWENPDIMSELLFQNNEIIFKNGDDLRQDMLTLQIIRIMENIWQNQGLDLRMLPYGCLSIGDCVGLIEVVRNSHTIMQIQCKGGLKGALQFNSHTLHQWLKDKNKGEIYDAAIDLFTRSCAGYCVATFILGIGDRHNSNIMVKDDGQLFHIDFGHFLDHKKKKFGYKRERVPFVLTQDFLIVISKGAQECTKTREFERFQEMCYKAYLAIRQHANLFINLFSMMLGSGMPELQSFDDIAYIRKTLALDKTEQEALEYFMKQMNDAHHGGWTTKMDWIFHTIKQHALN
Description: Inhibition of human PI3Kalpha (108 to 1068 residues) expressed in mammalian expression system by KINOMEscan assay

[17] = biological target: Phosphatidylinositol 3-kinase catalytic subunit type 3 (Homo sapiens, UniProt Q8NEB9); experiment: Inhibition of human VPS34 (282 to 879 residues) expressed in mammalian expression system by KINOMEscan assay
Chain of Phosphatidylinositol 3-kinase catalytic subunit type 3 (Q8NEB9 whole entry, the tested form may be a part): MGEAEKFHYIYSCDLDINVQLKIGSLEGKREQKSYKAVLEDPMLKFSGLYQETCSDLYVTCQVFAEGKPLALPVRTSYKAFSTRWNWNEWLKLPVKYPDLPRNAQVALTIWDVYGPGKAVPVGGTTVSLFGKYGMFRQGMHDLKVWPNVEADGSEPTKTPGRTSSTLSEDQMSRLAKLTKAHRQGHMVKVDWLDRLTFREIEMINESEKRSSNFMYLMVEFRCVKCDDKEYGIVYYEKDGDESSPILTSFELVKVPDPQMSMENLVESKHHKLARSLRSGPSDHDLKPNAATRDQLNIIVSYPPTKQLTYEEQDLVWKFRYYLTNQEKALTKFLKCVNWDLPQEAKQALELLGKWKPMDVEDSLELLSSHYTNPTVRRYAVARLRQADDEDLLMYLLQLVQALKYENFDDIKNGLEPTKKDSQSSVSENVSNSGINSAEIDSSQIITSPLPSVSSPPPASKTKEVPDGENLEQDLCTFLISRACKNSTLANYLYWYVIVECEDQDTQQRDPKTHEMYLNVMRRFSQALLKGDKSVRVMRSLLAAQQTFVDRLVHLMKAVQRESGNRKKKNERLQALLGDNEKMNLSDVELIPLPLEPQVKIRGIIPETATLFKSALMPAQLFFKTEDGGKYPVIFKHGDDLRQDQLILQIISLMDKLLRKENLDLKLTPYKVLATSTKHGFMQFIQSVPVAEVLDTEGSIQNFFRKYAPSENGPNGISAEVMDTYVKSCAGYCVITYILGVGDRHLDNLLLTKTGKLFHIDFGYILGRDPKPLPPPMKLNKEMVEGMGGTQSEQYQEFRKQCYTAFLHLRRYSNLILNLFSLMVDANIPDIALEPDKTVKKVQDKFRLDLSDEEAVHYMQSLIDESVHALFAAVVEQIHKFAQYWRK

[18] = Cmax in C57BL/6JRj mouse brain at 50 mg/kg, po administered as single dose; type: ADME, organism-based; design: dose 50 mg/kg, route oral
[19] = Half life in mouse hepatocytes; type: ADME, cell-based, Hepatocyte
[20] = system: Mus musculus; experiment: Increase in insulin levels in C57BL/6JRj mouse plasma at 50 mg/kg, po administered as single dose; type: functional, organism-based
[21] = Metabolic stability in rat liver microsomes assessed as compound remaining after 30 mins; type: ADME, microsome; conditions: read-out: Stability
[22] = biological target: Voltage-gated inwardly rectifying potassium channel KCNH2 (Homo sapiens, UniProt Q12809); experiment: Binding affinity to human ERG expressed in CHO cell membranes at 10 uM by radioligand displacement assay
[23] = Thermodynamic solubility of the compound in FaSSIF; type: physicochemical; conditions: read-out: Therm_solubility
[24] = biological target: T3, Phosphatidylinositol 4,5-bisphosphate 3-kinase catalytic subunit delta isoform (Homo sapiens, UniProt O00329)
T3 sequence (O00329 whole entry): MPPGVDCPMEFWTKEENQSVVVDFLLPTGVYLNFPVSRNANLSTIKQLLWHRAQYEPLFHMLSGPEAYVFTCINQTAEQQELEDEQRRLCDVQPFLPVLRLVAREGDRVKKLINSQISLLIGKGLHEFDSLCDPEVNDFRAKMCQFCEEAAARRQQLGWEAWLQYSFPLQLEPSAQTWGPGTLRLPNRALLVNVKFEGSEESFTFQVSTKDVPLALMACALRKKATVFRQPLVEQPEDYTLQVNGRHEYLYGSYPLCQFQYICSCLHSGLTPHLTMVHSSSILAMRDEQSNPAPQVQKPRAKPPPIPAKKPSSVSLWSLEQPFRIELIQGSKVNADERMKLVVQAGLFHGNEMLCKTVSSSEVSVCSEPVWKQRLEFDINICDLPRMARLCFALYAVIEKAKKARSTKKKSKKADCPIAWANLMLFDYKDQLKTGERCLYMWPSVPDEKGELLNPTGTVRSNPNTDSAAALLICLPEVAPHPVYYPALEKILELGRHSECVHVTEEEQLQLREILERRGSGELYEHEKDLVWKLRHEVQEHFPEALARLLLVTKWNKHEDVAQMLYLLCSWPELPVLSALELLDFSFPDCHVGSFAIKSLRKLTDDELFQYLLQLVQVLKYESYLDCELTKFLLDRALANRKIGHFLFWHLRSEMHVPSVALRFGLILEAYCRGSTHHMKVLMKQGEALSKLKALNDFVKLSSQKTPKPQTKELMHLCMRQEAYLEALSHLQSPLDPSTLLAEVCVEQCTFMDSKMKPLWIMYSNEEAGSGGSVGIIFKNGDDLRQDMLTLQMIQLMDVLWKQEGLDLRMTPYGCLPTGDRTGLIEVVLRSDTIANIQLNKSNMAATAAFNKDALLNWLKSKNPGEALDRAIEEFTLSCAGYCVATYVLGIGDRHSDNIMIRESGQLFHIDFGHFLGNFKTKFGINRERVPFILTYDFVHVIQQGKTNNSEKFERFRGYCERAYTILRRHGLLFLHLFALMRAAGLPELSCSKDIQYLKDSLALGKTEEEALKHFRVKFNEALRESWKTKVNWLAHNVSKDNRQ
Description: Inhibition of human PI3Kdelta (108 to 1044 residues) expressed in mammalian expression system by KINOMEscan assay

[25] = biological target: T2, Phosphatidylinositol 4,5-bisphosphate 3-kinase catalytic subunit alpha isoform; remark: listed apart in the source
[26] = system: Rattus norvegicus; experiment: Increase in glucose levels in Sprague-Dawley rat plasma at 10 mg/kg, po administered as single dose; type: functional, organism-based
[27] = biological target: COX1 (Prostaglandin G/H synthase 1) (Homo sapiens, UniProt P23219); experiment: Inhibition of recombinant human COX1 at 10 uM using arachidonic acid/ADHP as substrate by fluorometric method relative to control; conditions: recombinant human COX1, probe arachidonic acid/ADHP
[28] = biological target: Phosphatidylinositol 4,5-bisphosphate 3-kinase catalytic subunit gamma isoform (Homo sapiens, UniProt P48736)
Chain of Phosphatidylinositol 4,5-bisphosphate 3-kinase catalytic subunit gamma isoform (P48736 whole entry, canonical isoform): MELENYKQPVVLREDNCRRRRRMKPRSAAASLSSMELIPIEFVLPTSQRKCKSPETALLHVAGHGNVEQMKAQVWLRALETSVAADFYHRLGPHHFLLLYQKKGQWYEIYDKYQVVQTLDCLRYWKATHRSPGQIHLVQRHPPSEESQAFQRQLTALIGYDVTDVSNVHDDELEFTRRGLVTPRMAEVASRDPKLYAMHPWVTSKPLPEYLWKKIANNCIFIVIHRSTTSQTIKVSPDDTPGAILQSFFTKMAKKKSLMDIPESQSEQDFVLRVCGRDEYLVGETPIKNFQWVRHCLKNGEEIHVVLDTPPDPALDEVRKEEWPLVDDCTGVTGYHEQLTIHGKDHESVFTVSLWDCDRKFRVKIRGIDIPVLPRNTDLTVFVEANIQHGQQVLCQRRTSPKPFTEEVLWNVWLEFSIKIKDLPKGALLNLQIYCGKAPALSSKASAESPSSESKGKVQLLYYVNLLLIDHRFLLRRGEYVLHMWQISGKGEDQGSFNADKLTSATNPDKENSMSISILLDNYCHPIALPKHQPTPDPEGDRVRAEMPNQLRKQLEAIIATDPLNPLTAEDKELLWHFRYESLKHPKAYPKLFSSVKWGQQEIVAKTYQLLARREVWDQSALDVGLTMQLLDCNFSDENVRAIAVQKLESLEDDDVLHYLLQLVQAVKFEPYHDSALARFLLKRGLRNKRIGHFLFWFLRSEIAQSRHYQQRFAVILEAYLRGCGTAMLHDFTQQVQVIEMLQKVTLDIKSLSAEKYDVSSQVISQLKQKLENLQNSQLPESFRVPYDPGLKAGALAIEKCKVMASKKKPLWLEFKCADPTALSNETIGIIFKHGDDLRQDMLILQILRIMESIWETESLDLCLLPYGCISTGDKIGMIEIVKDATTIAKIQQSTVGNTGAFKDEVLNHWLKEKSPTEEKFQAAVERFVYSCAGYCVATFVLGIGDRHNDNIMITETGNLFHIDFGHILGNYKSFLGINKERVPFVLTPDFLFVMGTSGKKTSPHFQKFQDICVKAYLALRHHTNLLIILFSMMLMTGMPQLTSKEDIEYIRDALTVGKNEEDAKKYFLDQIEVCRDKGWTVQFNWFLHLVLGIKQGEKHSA
Description: Inhibition of human PI3Kgamma (144 to 1102 residues) expressed in mammalian expression system by KINOMEscan assay

[29] = Cmax in Sprague-Dawley rat brain at 10 mg/kg, po administered as single dose after 30 mins; type: ADME, organism-based; design: dose 10 mg/kg, route oral
[30] = AUC in Sprague-Dawley rat plasma at 10 mg/kg, po administered as single dose after 8 hrs; type: ADME, organism-based; design: dose 10 mg/kg, time < 8 hr, route oral
[31] = Drug uptake in Sprague-Dawley rat brain at 10 mg/kg, po administered as single dose measured at >8 hrs; type: ADME, organism-based; conditions: read-out: Drug uptake
[32] = Toxicity in rat after 14 days; type: organism-based; conditions: in vivo
[33] = Cmax in Sprague-Dawley rat plasma at 10 mg/kg, po administered as single dose after 30 mins; type: ADME, organism-based; design: dose 10 mg/kg, route oral
[34] = Ratio of drug level in Sprague-Dawley rat brain to plasma at 10 mg/kg, po administered as single dose; type: ADME, organism-based; conditions: read-out: BPR
[35] = system: OVCAR-3; experiment: Antitumor activity against human OVCAR3 cells xenografted in BALB/C nude mouse assessed as tumor growth inhibition at 50 mg/kg, po administered daily for 28 days relative to control; type: functional; conditions: OVCAR-3, po, 672 h, read-out: TGI
[36] = biological target: PDE4D2 (3',5'-cyclic-AMP phosphodiesterase 4D) (Homo sapiens, UniProt Q08499); experiment: Inhibition of recombinant human PDE4D2 at 10 uM using [3H]cAMP/cAMP by scintillation counting method relative to control; conditions: recombinant human PDE4D2, probe [3H]cAMP/cAMP
Chain of PDE4D2 (3',5'-cyclic-AMP phosphodiesterase 4D) (Q08499 whole entry): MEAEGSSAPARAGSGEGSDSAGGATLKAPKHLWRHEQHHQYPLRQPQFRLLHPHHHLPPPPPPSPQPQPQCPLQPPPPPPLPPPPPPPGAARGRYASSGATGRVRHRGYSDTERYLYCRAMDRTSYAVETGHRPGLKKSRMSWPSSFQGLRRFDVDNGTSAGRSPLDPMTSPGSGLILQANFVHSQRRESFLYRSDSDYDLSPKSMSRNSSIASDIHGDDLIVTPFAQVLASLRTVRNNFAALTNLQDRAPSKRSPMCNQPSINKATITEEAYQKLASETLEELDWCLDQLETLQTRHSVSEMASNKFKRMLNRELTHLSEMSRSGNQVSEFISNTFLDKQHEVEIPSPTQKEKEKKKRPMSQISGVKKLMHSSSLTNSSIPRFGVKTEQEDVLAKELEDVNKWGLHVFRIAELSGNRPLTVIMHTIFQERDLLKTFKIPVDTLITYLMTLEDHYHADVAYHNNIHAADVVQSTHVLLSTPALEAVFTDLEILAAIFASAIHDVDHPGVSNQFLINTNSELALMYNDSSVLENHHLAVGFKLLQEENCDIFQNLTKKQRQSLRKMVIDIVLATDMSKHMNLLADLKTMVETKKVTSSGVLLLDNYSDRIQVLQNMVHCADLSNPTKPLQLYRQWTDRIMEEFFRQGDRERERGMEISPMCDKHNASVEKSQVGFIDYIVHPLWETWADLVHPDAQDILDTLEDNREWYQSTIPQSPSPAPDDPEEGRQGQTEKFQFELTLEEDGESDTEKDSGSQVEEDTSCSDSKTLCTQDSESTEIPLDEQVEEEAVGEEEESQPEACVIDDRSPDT

[37] = system: A 172; experiment: Growth inhibition of human A172 cells after 72 hrs by ATPlite based assay; type: functional; conditions: A 172, 72 h, pooled result: one value given for 8 cell lines, strains, targets or settings
[38] = Inhibition of TORC2 in human A2058 cells assessed as decrease in PKB/Akt phosphorylation at Ser473 after 1 hr by Western blot analysis; type: cell-based; conditions: A2058, 1 h
[39] = system: Mus musculus; experiment: Antiepileptic activity in Tsc1flox/flox/GFAP-Cre conditional knocked out mouse model assessed as reduction in seizures at 100 mg/kg, po qd treated from days 21 to 53 postnatal by electroencephalography; type: functional, organism-based
[40] = Toxicity in mouse; type: organism-based; conditions: in vivo
[41] = Apparent permeability of the compound by PAMPA; type: ADME
[42] = Thermodynamic solubility of the compound at pH 6.8; type: physicochemical; conditions: buffer, read-out: Therm_solubility
[43] = biological target: Phosphatidylinositol 4-kinase beta (Homo sapiens, UniProt Q9UBF8)
Chain of Phosphatidylinositol 4-kinase beta (Q9UBF8 whole entry): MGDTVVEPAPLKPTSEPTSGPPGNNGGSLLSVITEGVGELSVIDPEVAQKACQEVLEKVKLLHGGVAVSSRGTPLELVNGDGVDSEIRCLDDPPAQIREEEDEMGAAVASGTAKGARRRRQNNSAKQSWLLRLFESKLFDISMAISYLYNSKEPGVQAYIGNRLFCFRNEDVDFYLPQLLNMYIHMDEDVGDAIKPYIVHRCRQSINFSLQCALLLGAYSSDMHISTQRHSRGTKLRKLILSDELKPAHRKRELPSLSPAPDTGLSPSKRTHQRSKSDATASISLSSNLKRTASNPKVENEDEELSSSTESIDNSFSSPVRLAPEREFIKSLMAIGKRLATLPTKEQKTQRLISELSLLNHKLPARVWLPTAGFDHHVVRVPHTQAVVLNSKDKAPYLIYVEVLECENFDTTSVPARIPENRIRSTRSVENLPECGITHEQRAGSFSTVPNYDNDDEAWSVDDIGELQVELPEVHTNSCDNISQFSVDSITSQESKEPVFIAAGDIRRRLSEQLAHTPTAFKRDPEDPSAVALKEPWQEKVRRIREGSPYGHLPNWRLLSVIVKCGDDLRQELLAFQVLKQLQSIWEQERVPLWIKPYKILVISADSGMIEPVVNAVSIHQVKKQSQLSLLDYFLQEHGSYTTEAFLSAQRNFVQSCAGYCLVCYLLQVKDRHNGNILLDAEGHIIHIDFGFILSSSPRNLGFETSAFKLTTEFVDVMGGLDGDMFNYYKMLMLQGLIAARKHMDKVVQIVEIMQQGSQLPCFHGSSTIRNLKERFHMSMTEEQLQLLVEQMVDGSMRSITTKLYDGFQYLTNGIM
Description: Inhibition of human PI4Kbeta (1 to 828 residues) expressed in mammalian expression system by KINOMEscan assay

[44] = biological target: T1, Serine/threonine-protein kinase mTOR; remark: listed apart in the source
Description: Inhibition of human mTOR (1382 to 2549 residues) expressed in mammalian expression system by KINOMEscan assay

[45] = Lipophilicity, log D of the compound at pH 7.4; type: physicochemical; conditions: buffer
[46] = Inhibition of TORC1 in human A2058 cells assessed as decrease in S6 phosphorylation at Ser235/236 after 1 hr by Western blot analysis; type: cell-based; conditions: A2058, 1 h
[47] = system: SK-OV-3; experiment: Antiproliferative activity against human SKOV3 cells at 10 uM after 72 hrs by ATPlite based assay; type: functional, cell-based
[48] = system: A2058; experiment: Induction of cell cycle arrest in human A2058 cells assessed as decrease in cell levels at G2/M phase at 5 uM after 24 hrs by Hoechst33342-staining based FACS analysis; type: functional
[49] = system: SK-OV-3; experiment: Induction of cell cycle arrest in human SKOV3 cells assessed as decrease in cell levels at G2/M phase at 2 uM after 24 hrs by Hoechst33342-staining based FACS analysis; type: functional
[50] = system: SK-OV-3; experiment: Induction of cell cycle arrest in human SKOV3 cells assessed as accumulation at G1 phase at 2 uM after 24 hrs by Hoechst33342-staining based FACS analysis; type: functional
[51] = system: SK-OV-3; experiment: Induction of cell cycle arrest in human SKOV3 cells assessed as decrease in cell levels at S phase at 2 uM after 24 hrs by Hoechst33342-staining based FACS analysis; type: functional
[52] = system: A2058; experiment: Antiproliferative activity against human A2058 cells at 10 uM after 72 hrs by ATPlite based assay; type: functional, cell-based
[53] = system: A2058; experiment: Induction of cell cycle arrest in human A2058 cells assessed as accumulation at G1 phase at 5 uM after 24 hrs by Hoechst33342-staining based FACS analysis; type: functional
[54] = system: A2058; experiment: Induction of cell cycle arrest in human A2058 cells assessed as decrease in cell levels at S phase at 5 uM after 24 hrs by Hoechst33342-staining based FACS analysis; type: functional

Compound: Nc1cc(C(F)F)c(-c2nc(N3C4CCC3COC4)nc(N3C4CCC3COC4)n2)cn1
- solubility thermodynamic [1]: 335 µM (≈ 149 µg/mL)
- hepatocyte CLint [2]: 2.67 µL/min/1e6 cells
- AUC [3]: 404 µg·h/g
- solubility thermodynamic [4]: 20 mM (≈ 8890 µg/mL)
- Activity [5]: Non-Toxic
- solubility thermodynamic [6]: 78.2 µM (≈ 34.8 µg/mL)
- Kd [7]: 22 µM
- half-life [8]: 468 min
- fraction unbound [9]: 0.03
- Kp [10]: 1.6
- remaining at 0.5 h [11]: 70.2%
- Activity [12]: inactive
- hepatocyte CLint [13]: 1.85 µL/min/1e6 cells
- Ki [14]: 10.8 nM
- Activity [15]: Active
- Kd [16]: 1000 nM
- Kd [17]: 2750 nM
- Cmax [18]: 7710 ng/g
- half-life [19]: 324 min
- Activity [20]: inactive
- remaining at 0.5 h [21]: 108%
- inhibition (INH) [22]: Not Active
- solubility thermodynamic [23]: 66 µM (≈ 29.4 µg/mL)
- Kd [24]: 23 µM
- Ki [25]: 4.2 µM
- Activity [26]: inactive
- inhibition at 10 µM [27]: < 50%
- Kd [28]: 18 µM
- Cmax [29]: 1310 ng/g
- AUC at 8 h [30]: 409 µg·h/mL
- concentration at 8 h [31]: 900 ng/g
- MTD at 336 h [32]: 30 mg/kg
- Cmax [33]: 1360 ng/mL
- Kp [34]: 1
- inhibition in vivo at 50 mg/kg [35]: > 50%
- inhibition at 10 µM [36]: < 50%
- IC50 [37]: 920 nM
- IC50 [38]: 190 nM
- Activity [39]: Active
- MTD [40]: 150 mg/kg
- Papp [41]: 5.22 ×10⁻⁶ cm/s
- solubility thermodynamic [42]: 33.7 µM (≈ 15 µg/mL)
- Kd [43]: > 30 µM
- Kd [44]: 0.27 nM
- logD [45]: 3.47
- IC50 [46]: 85.2 nM

Compound: CO[C@H]1C[C@@H]2CC[C@@H](C)[C@@](O)(O2)C(=O)C(=O)N2CCCC[C@H]2C(=O)O[C@H]([C@H](C)C[C@@H]2CC[C@@H](O)[C@H](OC)C2)CC(=O)[C@H](C)/C=C(\C)[C@@H](O)[C@@H](OC)C(=O)[C@H](C)C[C@H](C)/C=C/C=C/C=C/1C
- Activity [47]: inactive
- Activity [48]: Active
- Activity [49]: Active
- Activity [50]: Active
- Activity [51]: Active
- Activity [52]: Active
- Activity [53]: Active
- Activity [54]: Active
